From paper PMC7827085 (Pharmaceutics, 2021)

Experiments:
OATP1A2 [1] = molecular target: T1, OATP1A2 (Homo sapiens, UniProt P46721); test: in vitro; conditions: A431 cells overexpressing OATP1A2, pH 7, probe sulforhodamine 101, 0.5 µM
T1 sequence (P46721 1-670): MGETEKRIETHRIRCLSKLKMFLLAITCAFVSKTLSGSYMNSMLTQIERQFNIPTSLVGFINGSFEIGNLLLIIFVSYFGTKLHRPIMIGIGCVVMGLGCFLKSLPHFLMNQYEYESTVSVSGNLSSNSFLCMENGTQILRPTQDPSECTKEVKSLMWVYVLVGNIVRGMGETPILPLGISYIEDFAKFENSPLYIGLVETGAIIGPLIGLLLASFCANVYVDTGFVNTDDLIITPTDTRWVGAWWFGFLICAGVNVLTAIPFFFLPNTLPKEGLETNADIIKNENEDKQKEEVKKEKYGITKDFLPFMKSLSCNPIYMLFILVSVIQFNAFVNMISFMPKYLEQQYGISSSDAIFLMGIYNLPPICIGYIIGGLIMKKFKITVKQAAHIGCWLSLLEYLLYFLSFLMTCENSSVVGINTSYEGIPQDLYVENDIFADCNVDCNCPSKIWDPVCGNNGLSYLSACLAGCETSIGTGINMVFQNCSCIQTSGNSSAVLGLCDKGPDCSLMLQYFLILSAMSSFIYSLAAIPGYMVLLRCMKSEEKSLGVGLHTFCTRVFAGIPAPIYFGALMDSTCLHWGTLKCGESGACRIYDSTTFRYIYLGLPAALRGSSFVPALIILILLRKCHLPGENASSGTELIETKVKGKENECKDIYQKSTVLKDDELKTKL

OATP2B1 = molecular target: T2, OATP2B1 (Homo sapiens, UniProt O94956); test: in vitro; conditions: A431 cells overexpressing OATP2B1, pH 5.5, probe pyranine, 20 µM
T2 sequence (O94956 1-709): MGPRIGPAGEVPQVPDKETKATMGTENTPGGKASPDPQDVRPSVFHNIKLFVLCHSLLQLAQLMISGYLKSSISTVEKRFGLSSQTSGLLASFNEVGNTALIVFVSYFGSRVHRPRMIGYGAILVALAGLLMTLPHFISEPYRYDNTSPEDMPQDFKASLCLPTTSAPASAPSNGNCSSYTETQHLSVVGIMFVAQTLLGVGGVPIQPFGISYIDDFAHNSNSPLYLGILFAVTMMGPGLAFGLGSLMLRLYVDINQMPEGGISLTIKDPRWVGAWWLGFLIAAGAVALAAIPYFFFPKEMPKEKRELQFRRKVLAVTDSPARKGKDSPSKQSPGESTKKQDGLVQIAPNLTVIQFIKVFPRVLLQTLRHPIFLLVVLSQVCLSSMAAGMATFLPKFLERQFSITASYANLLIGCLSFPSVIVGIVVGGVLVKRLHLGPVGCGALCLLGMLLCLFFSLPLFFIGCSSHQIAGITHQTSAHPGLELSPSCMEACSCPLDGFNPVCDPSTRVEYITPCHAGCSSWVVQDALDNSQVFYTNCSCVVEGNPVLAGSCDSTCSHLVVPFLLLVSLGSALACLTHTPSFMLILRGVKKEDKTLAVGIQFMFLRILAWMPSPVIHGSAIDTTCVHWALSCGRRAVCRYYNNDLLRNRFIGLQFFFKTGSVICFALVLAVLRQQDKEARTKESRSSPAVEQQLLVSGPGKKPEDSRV

OATP1A2 [2] = molecular target: T1, OATP1A2; conditions: based on the IC50 values
ABCG2/BCRP = molecular target: T3, ABCG2/BCRP (Homo sapiens, UniProt Q9UNQ0); test: ABCG2-ATPase activity in Sf9 membrane vesicles; type: biochemical; parameters: expressed in transfected cells; host or cells: PLB-985; conditions: Sf9/ABCG2 membranes
T3 sequence (Q9UNQ0 1-655): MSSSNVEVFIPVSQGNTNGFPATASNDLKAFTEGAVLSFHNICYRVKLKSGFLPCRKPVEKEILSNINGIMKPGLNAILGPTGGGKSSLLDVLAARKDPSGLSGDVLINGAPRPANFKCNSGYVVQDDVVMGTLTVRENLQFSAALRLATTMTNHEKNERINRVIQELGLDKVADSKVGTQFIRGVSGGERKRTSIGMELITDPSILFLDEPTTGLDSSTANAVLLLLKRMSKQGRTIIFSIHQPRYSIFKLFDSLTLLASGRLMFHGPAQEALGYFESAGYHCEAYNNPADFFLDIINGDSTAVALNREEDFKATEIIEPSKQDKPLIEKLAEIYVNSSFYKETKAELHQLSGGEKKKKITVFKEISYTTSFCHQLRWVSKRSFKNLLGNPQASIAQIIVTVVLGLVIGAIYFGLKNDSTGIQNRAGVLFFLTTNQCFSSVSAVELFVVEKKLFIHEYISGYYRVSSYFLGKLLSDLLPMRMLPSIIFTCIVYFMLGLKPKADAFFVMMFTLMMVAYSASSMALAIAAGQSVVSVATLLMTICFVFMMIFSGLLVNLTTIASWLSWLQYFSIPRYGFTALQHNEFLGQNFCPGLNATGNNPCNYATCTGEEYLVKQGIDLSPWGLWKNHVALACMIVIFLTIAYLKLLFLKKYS
Protocol: ABC transporter ATPase activity was measured in Sf9 membrane vesicles containing the respective human ABC transporters [46, 47, 48, 49, 50]. For ABCG2/BCRP, the cholesterol level in the vesicles was increased to the level of mammalian cell membranes for full activity [49]. For ABCB1/Pgp 20 μg/150 μL and for ABCG2/BCRP 10 μg/150 μL, vesicles were incubated with 3 mM Mg-ATP for 25 min at 37 °C. The test drugs were dissolved in DMSO and 1 µL was added to the samples. The ABC transporter-related ATPase activity was determined and reference activators (50 µM verapamil for ABCB1 and 5 µM quercetin for ABCG2) served as controls.
Drug-stimulated ATPase activity of the ABCG2 transporter was also measured in the present study.

ABCB1/Pgp = molecular target: T4, ABCB1/Pgp (Homo sapiens, UniProt P08183); test: ABCB1-ATPase activity in Sf9 membrane vesicles; type: biochemical
T4 construct: made in house; host or cells: Sf9 insect cells
T4 sequence (P08183 whole entry): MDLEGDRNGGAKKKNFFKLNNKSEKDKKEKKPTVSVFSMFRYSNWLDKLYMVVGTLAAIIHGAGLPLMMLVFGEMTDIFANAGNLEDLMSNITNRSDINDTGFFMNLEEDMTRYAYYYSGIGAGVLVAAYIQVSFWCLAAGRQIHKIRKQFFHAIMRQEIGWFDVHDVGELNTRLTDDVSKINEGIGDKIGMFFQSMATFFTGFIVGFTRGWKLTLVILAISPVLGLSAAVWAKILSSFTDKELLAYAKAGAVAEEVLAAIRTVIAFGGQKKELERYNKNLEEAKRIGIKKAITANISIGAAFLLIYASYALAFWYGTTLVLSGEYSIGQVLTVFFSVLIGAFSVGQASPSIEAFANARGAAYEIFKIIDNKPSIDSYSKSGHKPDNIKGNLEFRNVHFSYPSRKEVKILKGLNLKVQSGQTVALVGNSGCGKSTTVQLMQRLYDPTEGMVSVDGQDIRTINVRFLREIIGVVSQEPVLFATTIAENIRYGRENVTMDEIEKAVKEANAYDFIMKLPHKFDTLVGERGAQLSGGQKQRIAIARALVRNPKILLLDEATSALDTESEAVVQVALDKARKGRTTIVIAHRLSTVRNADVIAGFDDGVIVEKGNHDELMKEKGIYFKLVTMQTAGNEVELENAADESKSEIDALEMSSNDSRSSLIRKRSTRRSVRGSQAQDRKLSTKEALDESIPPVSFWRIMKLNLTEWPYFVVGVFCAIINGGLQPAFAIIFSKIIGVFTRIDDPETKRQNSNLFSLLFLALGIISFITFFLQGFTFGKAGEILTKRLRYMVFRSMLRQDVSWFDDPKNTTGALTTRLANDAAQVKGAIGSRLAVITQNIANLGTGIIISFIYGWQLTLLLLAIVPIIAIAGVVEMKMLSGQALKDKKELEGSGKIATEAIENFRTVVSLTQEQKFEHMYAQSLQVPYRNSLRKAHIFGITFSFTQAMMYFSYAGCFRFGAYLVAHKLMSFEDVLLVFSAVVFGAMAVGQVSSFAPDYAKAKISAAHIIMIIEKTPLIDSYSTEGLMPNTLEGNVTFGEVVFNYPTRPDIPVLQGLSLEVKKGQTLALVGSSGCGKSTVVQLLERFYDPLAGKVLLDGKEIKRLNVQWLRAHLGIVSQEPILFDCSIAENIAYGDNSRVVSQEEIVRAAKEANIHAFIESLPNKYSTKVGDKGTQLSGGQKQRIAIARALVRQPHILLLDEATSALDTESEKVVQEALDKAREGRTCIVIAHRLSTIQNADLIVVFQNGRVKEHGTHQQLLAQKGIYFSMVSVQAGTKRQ
Protocol: ABC transporter ATPase activity was measured in Sf9 membrane vesicles containing the respective human ABC transporters. For ABCG2/BCRP, the cholesterol level in the vesicles was increased to the level of mammalian cell membranes for full activity. For ABCB1/Pgp 20 μg/150 μL and for ABCG2/BCRP 10 μg/150 μL, vesicles were incubated with 3 mM Mg-ATP for 25 min at 37 °C. The test drugs were dissolved in DMSO and 1 µL was added to the samples. The ABC transporter-related ATPase activity was determined and reference activators (50 µM verapamil for ABCB1 and 5 µM quercetin for ABCG2) served as controls.
Drug-stimulated ATPase activity of the ABCB1 transporter is a well-documented functional assay employed to estimate the substrate or inhibitory features of various drugs. […] In this assay, most transported substrates show a biphasic curve: Low concentrations stimulate, while higher concentrations inhibit, the ATPase activity. In these experiments, we measured the vanadate-sensitive (ABC transporter-related) ABCB1-ATPase activity in membrane vesicles isolated from ABCB1 overexpressing Sf9 cells.

Compound: NC(=O)c1nc(F)c[nH]c1=O [favipiravir]
- IC50 at 10 min (OATP1A2 [1]): > 50 µM
- IC50 at 15 min (OATP2B1): > 50 µM

Compound: CCN(CCO)CCCC(C)Nc1ccnc2cc(Cl)ccc12 (centres unmarked) [hydroxychloroquine]
- Fold lower affinity for OATP1A2 than lopinavir, ritonavir, remdesivir and ivermectin (OATP1A2 [2]): 3–10 fold

Compound: CCC(CC)COC(=O)[C@H](C)N[P@](=O)(OC[C@H]1O[C@@](C#N)(c2ccc3c(N)ncnn23)[C@H](O)[C@@H]1O)Oc1ccccc1 [remdesivir]
- Concentration at which baseline ABCG2-ATPase activity was inhibited (ABCG2/BCRP): 20 to 50 µmol
- Effect on baseline ABCG2-ATPase activity (in words) (ABCG2/BCRP; ivermectin, ritonavir, lopinavir at low micromolar, remdesivir at higher concentrations): significantly inhibited
- EC50 (ABCB1/Pgp): ~10 µM
- Concentration at which ABCB1-ATPase activity was increased (ABCB1/Pgp; Sf9/ABCB1 membranes): 10 to 50 µM
- Effect on ABCB1-ATPase activity (in words) (ABCB1/Pgp; Sf9/ABCB1 membranes, 50 µM verapamil as reference activator): significant ABCB1-ATPase stimulation
